Data on 2 compounds can be found in patent EP4781984A1 (Beyang Therapeutics Co., Ltd., priority 2023, dated 2025).

One data set has as its target T1, VEGFR2 (Homo sapiens, UniProt P35968).
T1 construct: purchased Carna 08-191
The experiment in a line: Kinase inhibitory activity, Mobility Shift Assay (VEGFR2). In kind it is biochemical. A digest of the protocol: (§1)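 Each kinase pre-incubated 10 min at room temperature, then FAM-labelled peptide with MgCl2 and ATP added; reaction at 28 °C for kinase-dependent times before stop. Substrate conversion read by mobility shift; IC50 from a four-parameter fit of % inhibition against log concentration.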

For the next data set, the target named is T2, EGFR (Homo sapiens, UniProt P00533).
T2 construct: purchased Carna 08-115
T2 sequence (P00533 25-1210): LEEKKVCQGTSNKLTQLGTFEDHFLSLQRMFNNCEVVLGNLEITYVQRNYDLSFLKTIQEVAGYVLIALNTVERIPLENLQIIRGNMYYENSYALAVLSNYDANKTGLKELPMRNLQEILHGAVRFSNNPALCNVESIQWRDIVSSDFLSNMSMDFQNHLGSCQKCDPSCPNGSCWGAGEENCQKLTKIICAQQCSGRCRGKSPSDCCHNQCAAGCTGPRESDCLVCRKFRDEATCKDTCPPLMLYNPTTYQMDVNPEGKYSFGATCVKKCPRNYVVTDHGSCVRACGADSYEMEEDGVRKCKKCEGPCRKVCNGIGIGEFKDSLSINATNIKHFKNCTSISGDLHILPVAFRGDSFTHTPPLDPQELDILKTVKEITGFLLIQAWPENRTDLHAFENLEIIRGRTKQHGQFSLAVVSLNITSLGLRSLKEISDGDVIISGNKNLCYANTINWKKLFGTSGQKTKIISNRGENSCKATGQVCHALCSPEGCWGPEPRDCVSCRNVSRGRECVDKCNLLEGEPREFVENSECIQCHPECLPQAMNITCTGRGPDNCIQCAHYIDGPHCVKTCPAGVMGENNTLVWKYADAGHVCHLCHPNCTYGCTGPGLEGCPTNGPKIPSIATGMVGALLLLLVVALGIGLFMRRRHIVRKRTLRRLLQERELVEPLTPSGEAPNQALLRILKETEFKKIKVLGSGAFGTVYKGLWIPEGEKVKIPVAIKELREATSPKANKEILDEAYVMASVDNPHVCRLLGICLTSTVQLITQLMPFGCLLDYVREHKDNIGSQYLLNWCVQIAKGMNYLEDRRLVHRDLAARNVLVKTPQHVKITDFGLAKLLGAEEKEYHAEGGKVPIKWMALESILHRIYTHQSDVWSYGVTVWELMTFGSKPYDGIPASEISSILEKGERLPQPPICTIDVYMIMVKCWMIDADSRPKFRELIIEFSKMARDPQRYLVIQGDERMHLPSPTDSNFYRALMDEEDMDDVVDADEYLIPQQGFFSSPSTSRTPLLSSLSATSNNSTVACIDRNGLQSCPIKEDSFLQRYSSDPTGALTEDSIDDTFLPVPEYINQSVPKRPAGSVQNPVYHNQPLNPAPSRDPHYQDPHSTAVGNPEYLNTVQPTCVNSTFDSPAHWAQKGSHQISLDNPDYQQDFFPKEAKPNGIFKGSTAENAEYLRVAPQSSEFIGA
The experiment in a line: Kinase inhibitory activity, Mobility Shift Assay (EGFR). In kind it is biochemical. A digest of the protocol: as §1

The target in another data set is T3, VEGFR1 (Homo sapiens, UniProt P17948).
T3 construct: purchased Invitrogen PR6731B
T3 sequence (P17948 27-1338): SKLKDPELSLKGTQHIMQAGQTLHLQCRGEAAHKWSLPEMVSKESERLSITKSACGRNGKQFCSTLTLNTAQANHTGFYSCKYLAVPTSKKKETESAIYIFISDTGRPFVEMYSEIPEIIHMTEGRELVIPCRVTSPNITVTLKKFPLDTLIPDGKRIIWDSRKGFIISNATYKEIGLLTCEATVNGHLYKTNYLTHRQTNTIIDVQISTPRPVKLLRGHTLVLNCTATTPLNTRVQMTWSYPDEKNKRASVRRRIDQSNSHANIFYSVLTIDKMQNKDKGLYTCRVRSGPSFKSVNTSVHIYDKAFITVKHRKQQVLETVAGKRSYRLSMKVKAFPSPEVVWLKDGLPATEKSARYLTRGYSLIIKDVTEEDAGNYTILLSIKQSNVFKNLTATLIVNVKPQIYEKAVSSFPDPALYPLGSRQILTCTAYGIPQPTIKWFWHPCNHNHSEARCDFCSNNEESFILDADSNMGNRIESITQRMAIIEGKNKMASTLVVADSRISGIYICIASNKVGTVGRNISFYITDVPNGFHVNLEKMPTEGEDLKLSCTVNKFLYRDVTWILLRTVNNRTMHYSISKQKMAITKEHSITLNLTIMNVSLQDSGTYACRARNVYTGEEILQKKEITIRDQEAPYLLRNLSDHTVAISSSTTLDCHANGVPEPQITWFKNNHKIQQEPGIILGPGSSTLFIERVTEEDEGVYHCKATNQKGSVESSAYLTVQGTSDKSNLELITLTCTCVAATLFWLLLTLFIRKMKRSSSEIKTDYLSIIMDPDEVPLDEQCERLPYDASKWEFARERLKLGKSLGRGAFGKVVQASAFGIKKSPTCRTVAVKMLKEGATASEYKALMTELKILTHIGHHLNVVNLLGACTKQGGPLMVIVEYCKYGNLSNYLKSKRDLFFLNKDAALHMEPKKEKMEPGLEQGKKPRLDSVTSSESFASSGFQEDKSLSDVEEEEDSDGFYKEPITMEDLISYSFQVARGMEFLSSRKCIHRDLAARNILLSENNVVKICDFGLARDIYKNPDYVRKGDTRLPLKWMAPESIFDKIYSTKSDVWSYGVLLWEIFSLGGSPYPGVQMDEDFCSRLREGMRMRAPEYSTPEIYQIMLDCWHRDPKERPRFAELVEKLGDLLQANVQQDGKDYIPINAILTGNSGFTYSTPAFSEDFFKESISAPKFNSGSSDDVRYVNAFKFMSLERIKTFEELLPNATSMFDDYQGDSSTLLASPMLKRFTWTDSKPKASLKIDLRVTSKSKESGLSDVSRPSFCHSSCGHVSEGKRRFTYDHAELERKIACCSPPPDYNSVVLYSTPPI
The experiment in a line: Kinase inhibitory activity, Mobility Shift Assay (VEGFR1). The format is biochemical. As for the experimental part:
(§2) Assay for Inhibitory Activity of Compounds Against VEGFR and EGFR Kinases
(§3) This assay directly monitors the inhibitory activity of compounds on kinase phosphorylation by measuring non-phosphorylated and phosphorylated substrates in the kinase reaction using Mobility Shift Assays/IMAP™ analysis. Table 2. Reagents and Instruments
(§4) Kinase and DTT were added to 1X kinase buffer to form a 2.5X kinase solution; 10 µL of the 2.5X kinase solution was transferred to a 384-well reaction plate, and 1X kinase buffer was added to the negative control wells. The plate was incubated at room temperature for 10 minutes; FAM-labeled peptide, MgCl2, ATP, and other reagents were added to 1X kinase buffer to form a 2.5X substrate solution; 10 µL of the above 2.5X substrate solution was transferred to the 384-well reaction plate; the plate was incubated at 28°C for varying times, and then 25 µL of stop solution was added to the 384-well reaction plate to terminate the reaction. Conversion rate data were read on a CaliperEZ Reader II. […] IC50 values were fitted using XLFit excel add-in version 5.4.0.8. Y = Bottom + (Top−Bottom)/(1 + […]) [formula]
(§5) X is the log value of compound concentration, Y is the inhibition rate (% inhibition).

Another data set concerns the target T4, VEGFR3 (Homo sapiens, UniProt P35916).
T4 construct: purchased Invitrogen PV4129
The experiment in a line: Kinase inhibitory activity, Mobility Shift Assay (VEGFR3). The format is biochemical. The method, then:
as §2, §3, §4, §5

The target of data set [1] is T5, VEGFR2 autophosphorylation (pVEGFR2) in HUVEC cells (Homo sapiens, UniProt P35968).
T5 construct: endogenous in cells; host or cells: HUVEC
The experiment in a line: Inhibition of VEGF-induced VEGFR2 phosphorylation in HUVEC cells (ELISA). The format is cell-based. The following applies: 50 ng/mL human VEGF, compound 1 hour. An excerpt:
Assay for Compound Inhibition of VEGFR2 Phosphorylation in HUVEC Cells
VEGF is a potent growth factor that promotes angiogenesis and vascular permeability. Vascular endothelial growth factor receptor 2 (VEGFR2) is the primary receptor for VEGF-induced endothelial cell signaling. Upon ligand binding, VEGFR2 undergoes autophosphorylation and is activated. The primary function from VEGFR2 signaling is to induce blood vessel formation during development and after tissue injury, and to bypass blocked vessels. Pathologically, VEGF and VEGFR2 are involved in tumor angiogenesis and vascular leakage. They are considered major players in many different cancers and ocular diseases accompanied by pathological neovascularization. This assay uses ELISA to measure the compound's ability to inhibit VEGF-induced VEGFR2 autophosphorylation (pVEGFR2) in HUVEC cells. Table 7. Reagents and Instruments
Before cell seeding, cells reached 60%-80% confluency in cell culture flasks. The cell suspension was diluted with pre-warmed complete medium to 4.5×10^6 cells/mL. 80 microliters of cell suspension was added to all wells of a 96-well cell plate (Corning-3599); incubated overnight at 37°C and 5% CO2. Compound powder was dissolved in DMSO to 10 mM and stored in a nitrogen cabinet. Compound dilution master plate: In a 96-well V-bottom plate (Axygen- WIPP02280), reference compound Ponatinib or test compound concentrations were added, starting from 5 mM (5 microliters of 10 mM compound solution plus 5 microliters DMSO) with 3-fold serial dilutions for a total of 8 concentration points. […] 20 microliters of diluted compound was transferred from the intermediate plate to the cell plate. The cell plate was then incubated at 37°C and 5% CO2 for 1 hour. […] It was gently shaken for 30 seconds, and the absorbance was measured within 30 minutes using a SpectraMax® 340 PC 384 Absorbance Microplate Reader, reading the optical density value at 450 nm. […]
All other values are expressed as a percentage of these controls (inhibition rate). […]
For orientation: In an ELISA, binding on a coated surface is turned into a signal by an enzyme label.

Data set [2] can be described thus: Ophthalmic formulations based on polyethylene glycol series vehicles: composition and state (Example 7). In kind it is physicochemical. A digest of the protocol: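 Compound was dissolved, or nearly dissolved, in PEG 400 by sonication (heated to 50 °C if needed), then mixed into Tris-HCl buffer containing hydroxypropyl-β-cyclodextrin, poloxamer 188 and gellan gum or another viscosity modifier. Physical state was scored visually as solution, near-clear solution, suspension or gel.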

Where [3] appears, read: Table 15: 10 mg/mL, Polyethylene glycol 400 10, Hydroxypropyl-β-cyclodextrin 10, Gellan Gum Gelrite 0.3, Poloxamer 188 1, Tris solution and Citric acid.
The mark [4] stands for this setting: Table 16: 2 mg/mL, Polyethylene Glycol 400 5, Poloxamer 188 1, Hydroxypropyl-β-cyclodextrin 6, Gellan Gum Gelrite 0.15, Tris-HCl Buffer (pH 6.8) 25mM.

What is called IC50 is the concentration needed to halve the response being measured.

T4 sequence (P35916 25-1363): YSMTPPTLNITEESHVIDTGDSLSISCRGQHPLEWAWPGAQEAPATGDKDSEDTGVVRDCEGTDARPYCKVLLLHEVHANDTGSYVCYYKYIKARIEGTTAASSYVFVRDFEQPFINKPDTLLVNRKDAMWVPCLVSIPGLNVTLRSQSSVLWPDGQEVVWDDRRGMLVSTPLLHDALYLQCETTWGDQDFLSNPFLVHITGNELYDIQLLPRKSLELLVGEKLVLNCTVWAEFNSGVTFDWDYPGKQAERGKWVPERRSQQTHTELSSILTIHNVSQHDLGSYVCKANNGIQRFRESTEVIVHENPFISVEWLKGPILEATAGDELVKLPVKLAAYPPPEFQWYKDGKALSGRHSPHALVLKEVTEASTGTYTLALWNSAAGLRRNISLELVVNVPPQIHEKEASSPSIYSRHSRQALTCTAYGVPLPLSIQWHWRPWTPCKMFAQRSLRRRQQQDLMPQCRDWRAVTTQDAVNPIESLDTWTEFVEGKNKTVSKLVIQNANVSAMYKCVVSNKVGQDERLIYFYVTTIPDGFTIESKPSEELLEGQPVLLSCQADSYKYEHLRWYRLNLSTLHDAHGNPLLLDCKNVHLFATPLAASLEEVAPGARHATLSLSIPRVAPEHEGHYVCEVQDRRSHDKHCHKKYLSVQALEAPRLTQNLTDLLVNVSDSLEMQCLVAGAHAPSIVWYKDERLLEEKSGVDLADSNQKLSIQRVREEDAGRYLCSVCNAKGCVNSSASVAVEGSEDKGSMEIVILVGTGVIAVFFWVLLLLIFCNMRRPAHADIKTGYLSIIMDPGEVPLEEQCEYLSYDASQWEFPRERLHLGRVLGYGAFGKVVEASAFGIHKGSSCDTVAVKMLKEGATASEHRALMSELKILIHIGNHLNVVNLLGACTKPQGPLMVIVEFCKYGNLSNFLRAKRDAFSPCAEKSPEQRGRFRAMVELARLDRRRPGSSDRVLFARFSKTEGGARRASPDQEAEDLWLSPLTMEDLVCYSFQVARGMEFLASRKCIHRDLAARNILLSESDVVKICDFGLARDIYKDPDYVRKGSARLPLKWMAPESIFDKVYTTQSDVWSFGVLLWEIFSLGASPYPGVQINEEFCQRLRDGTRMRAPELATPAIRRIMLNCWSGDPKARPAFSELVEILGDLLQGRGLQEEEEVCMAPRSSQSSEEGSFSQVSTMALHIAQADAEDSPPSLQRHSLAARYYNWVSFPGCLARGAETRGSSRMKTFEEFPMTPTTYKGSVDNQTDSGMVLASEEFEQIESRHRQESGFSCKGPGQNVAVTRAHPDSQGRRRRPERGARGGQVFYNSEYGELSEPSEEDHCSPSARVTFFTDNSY

Regarding `O=C(NC1CC1)c1cccc(F)c1Sc1ccc2c(/C=C/c3cnn(CCCN4CCCC4)c3)n[nH]c2c1` [Compound I-44, N-cyclopropyl-3-fluoro-2-({3-[(E)-2-{1-[3-(pyrrolidin-1-yl)propyl]-1H-pyrazol-4-yl}ethenyl]-1H-indazol-6-yl}sulfanyl)benzamide], the IC50 at VEGFR2 was in the range of 1 to 10 nM; at EGFR it was 6000 to 60000 nM; at VEGFR1, 1 to 10 nM; at VEGFR3, 10 to 100 nM; in data set [1], 1 to 5 nM.
Consider `CCNC(=O)c1cc(F)ccc1Sc1ccc2c(/C=C/c3ccc(CN4CCCC4)cn3)n[nH]c2c1` [Compound I-97, N-ethyl-5-fluoro-2-({3-[(E)-2-{5-[(pyrrolidin-1-yl)methyl]pyridin-2-yl}ethenyl]-1H-indazol-6-yl}sulfanyl)benzamide], for which, in data set [2] (setting [3]), the “State Description: pH” value was around 5.5 and the “State Description: state” value is given as “gel”. Besides, in data set [2] (setting [4]), the “Osmolality (mOsm/kg)” value is reported as around 300 mOsm/kg, the “State Description: pH” value is on record as around 7 and the “State Description: state” value is on record as “solution”.
